Results: US7129265B2, “Synergistic effects of amlodipine and atorvastatin metabolite as a basis for combination therapy” (priority 1999, dated 2006)

Tests used:
[1] = test system: human LDL; test: LDL oxidation determination (copper-induced, TBARS formation); assay type: biochemical; conditions: 3.0 μM; 4 h incubation; copper 10.0 μM
Experimental: The ability of these agents to inhibit LDL peroxidation was assessed in vitro following addition of copper (10.0 μM) by measuring the levels of thiobarbituric reactive substances (TBARS), a marker of lipid peroxidation. […] The EDTA content of the LDL samples obtained from human plasma was removed by gel filtration with PD-10 Sephadex […] filtration columns; PBS (nitrogen purged) was used as the eluent. The LDL samples (50 μg of protein/mL) were then preincubated with or without drug (3.0 μM) for 30 mm at 37° C. Oxidation of LDL was then induced by the addition of 10.0 μM CuSO4. The time course of LDL oxidation, measured by TBARS formation, was followed for 6 h at 37° C. ([…]. Potentiation of free radical-induced lipid peroxidative injury to sarcolemmal membranes by lipid amphiphiles. J. Biol. Chem. 1986; 261:1153-1157). […] The protein content of the LDL was determined using the Coomassie Protein Plus assay kit from Pierce Chemical. A rapid and sensitive method for the quantitation of microgram quantities of protein utilizing the principle of protein-dye binding. Anal. Biochem. 1976; 72:248-254).

[2] = Small angle X-ray diffraction analysis of membrane bilayer structure; assay type: physicochemical; conditions: drug to phospholipid 1:15; for overall membrane bilayer width, including surface hydration: without drug 55.5 Å
Experimental: The lipids (1-palmitoyl-2-oleoyl phosphatidylcholine and cholesterol) used for these samples were dissolved in HPLC-grade chloroform (10.0 mg/ml). Membrane vesicles were produced from these lipids by the same method as described for the peroxidation experiments. The final phospholipid concentration was 5.0 mg/ml buffer and the mole ratio of drug to phospholipid was 1:15. Membrane samples were oriented for diffraction analysis by subjecting them to centrifugation as previously described (Chester D W, Herbette L G, Mason R P, Joslyn A F, Triggle D J, Koppel D E. Diffusion of dihydropyridine calcium channel antagonists in cardiac sarcolemmal lipid multibilayers. Biophys. J. 1987; 52:1021–1030). Briefly, vesicles were placed in sedimentation cells that contained an aluminum foil substrate. The vesicles were sedimented in an SW-28 rotor (Beckman Instruments Fullerton, Calif.) at 35,000×g for 1.5 h at 5° C. Following centrifugation, the supernatant was removed from the pellets and the samples were then mounted on to curved glass supports. Samples were placed in sealed canisters to control relative humidity and temperature during the diffraction experiments, as previously described in detail (Chester D W, Herbette L G, Mason R P, Joslyn A F, Triggle D J, Koppel D E. Diffusion of dihydropyridine calcium channel antagonists in cardiac sarcolemmal lipid multibilayers. Biophys. J. 1987; 52: 1021–1030).
X-ray diffraction experiments were conducted by aligning the samples at grazing incidence with respect to a collimated, nickel-filtered monochromatic X-ray source (CuKα1.54 Å) produced by a high-brilliance rotating anode microfocus generator (Rigaku Rotaflex RU-200, Danvers, Mass.). The fixed geometry beam line consisted of a single, nickel-coated Franks mirror to define a line source where Kα and Kα are unresolved. […] The phases for the four-order data were determined by swelling analysis (Moody M F. X-ray diffraction pattern of nerve myelin: A method for determining the phases. Science 1963; 142:1173–117). […]

[3] = Membrane lipid peroxidation analysis (CHOD-Iodide assay) in membrane vesicles; assay type: biochemical
Experimental: In these experiments, oxidation occurred in a gradual, time-dependent manner that was measured spectrophotometrically over a 72 h period.
The separate and combined dose-dependent antioxidant activities of these agents were examined in membranes enriched with PUFA prepared at a 0.5 cholesterol to phospholipid mole ratio (Mason R P, Walter M F, Trumbore M W, Olmstead Jr. E G, Mason P E. Membrane antioxidant effects of the charged dihydropyridine calcium antagonist amlodipine. J. Mol Cell. Cardiol. 1999; 31:275–281). The lipid (dilinoleoyl phosphatidylcholine and cholesterol) used for these samples was dissolved in HPLC-grade chloroform (25.0 mg/ml). […]
Membrane lipid peroxidation was carried out at 37° C. in a shaking water bath without the addition of exogenous stimulants, as previously described in detail (Mason R P, Walter M F, Trumbore M W, Olmstead Jr. E G, Mason P E. Membrane antioxidant effects of the charged dihydropyridine calcium antagonist amlodipine. J. Mol. Cell. Cardiol. 1999; 31:275–281). […] The extent of membrane lipid peroxidation was measured by the CHOD-Iodide assay as previously described in detail (El-Saadani M, Esterbauer H, el-Sayed M, Goher M, Nassar A Y, Jurgens G. A spectrophotometric assay for lipid peroxides in serum lipoproteins using a commercially available reagent. J. Lipid. Res. 1989; 30:627–630). […]

overall membrane bilayer width, including surface hydration [2] | SMILES | TBARS formation compared to control lipid peroxidation (100%) [1] | effect on membrane dimensions, in words ([2]; includes intrabilayer headgroup separation) | inhibition of lipid peroxidation ([3]; 100.0 nM, membrane preparation enriched with cholesterol) | persistence of antioxidant effect over time ([3]; 10.0 μM, incubation up to 72 h)
54.8 Å | CCOC(=O)C1=C(COCCN)NC(C)=C(C(=O)OC)C1c1ccccc1Cl (stereo not shown) [AML, amlodipine besylate] | 93.3±6% | did not significantly alter membrane dimensions |  | 
58.0 Å | CC(C)c1c(C(=O)Nc2ccccc2O)c(-c2ccccc2)c(-c2ccc(F)cc2)n1CCC(O)CC(O)CC(=O)O (stereo not shown) [ATM, ortho-hydroxy metabolite of atorvastatin] | 65.6±7% |  | 9% | 
 | Cc1c(C)c2c(c(C)c1O)CC[C@@](C)(CCC[C@H](C)CCC[C@H](C)CCCC(C)C)O2 [vitamin E, α-tocopherol] |  |  |  | could not be reproduced
